In the supplement of paper PMC10307832:

Tests used:
Experiment in all cases: relative viability (nuclei count vs DMSO), 5 days (fraction); higher = more cells survive
AZD5582 + OSI-027 = compound: C[C@@H](C(=O)N[C@@H](C1CCCCC1)C(=O)N2CCC[C@H]2C(=O)N[C@@H]3[C@@H](CC4=CC=CC=C34)OCC#CC#CCO[C@@H]5CC6=CC=CC=C6[C@@H]5NC(=O)[C@@H]7CCCN7C(=O)[C@H](C8CCCCC8)NC(=O)[C@H](C)NC)NC [AZD5582] + COc1cccc2cc(-c3nc([C@H]4CC[C@H](C(=O)O)CC4)n4ncnc(N)c34)[nH]c12 [OSI-027] (partner 0.5 µM)
In short: (§1)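 Relative viability is defined as nuclei in treated wells over nuclei in vehicle wells. Duplicate plates were run and medians reported. Lung cancer cell lines in 1536-well plates were dosed by pin tool one day after seeding, with one drug or with a fixed anchor-drug dose plus five library-drug doses (not always all listed) in √10 steps, and nuclei were counted after 5 days.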

AZD5582 + Pictilisib = compound: C[C@@H](C(=O)N[C@@H](C1CCCCC1)C(=O)N2CCC[C@H]2C(=O)N[C@@H]3[C@@H](CC4=CC=CC=C34)OCC#CC#CCO[C@@H]5CC6=CC=CC=C6[C@@H]5NC(=O)[C@@H]7CCCN7C(=O)[C@H](C8CCCCC8)NC(=O)[C@H](C)NC)NC [AZD5582] + CS(=O)(=O)N1CCN(Cc2cc3nc(-c4cccc5[nH]ncc45)nc(N4CCOCC4)c3s2)CC1 [Pictilisib] (partner 1 µM)
In short: as §1

AZD5582 + Crizotinib = compound: C[C@@H](C(=O)N[C@@H](C1CCCCC1)C(=O)N2CCC[C@H]2C(=O)N[C@@H]3[C@@H](CC4=CC=CC=C34)OCC#CC#CCO[C@@H]5CC6=CC=CC=C6[C@@H]5NC(=O)[C@@H]7CCCN7C(=O)[C@H](C8CCCCC8)NC(=O)[C@H](C)NC)NC [AZD5582] + C[C@@H](Oc1cc(-c2cnn(C3CCNCC3)c2)cnc1N)c1c(Cl)ccc(F)c1Cl [Crizotinib] (partner 1 µM)
In short: as §1

AZD5582 + Linsitinib = compound: C[C@@H](C(=O)N[C@@H](C1CCCCC1)C(=O)N2CCC[C@H]2C(=O)N[C@@H]3[C@@H](CC4=CC=CC=C34)OCC#CC#CCO[C@@H]5CC6=CC=CC=C6[C@@H]5NC(=O)[C@@H]7CCCN7C(=O)[C@H](C8CCCCC8)NC(=O)[C@H](C)NC)NC [AZD5582] + C[C@]1(O)C[C@@H](c2nc(-c3ccc4ccc(-c5ccccc5)nc4c3)c3c(N)nccn32)C1 [Linsitinib] (partner 1 µM)
In short: as §1

AZD5582 + Tozasertib = compound: C[C@@H](C(=O)N[C@@H](C1CCCCC1)C(=O)N2CCC[C@H]2C(=O)N[C@@H]3[C@@H](CC4=CC=CC=C34)OCC#CC#CCO[C@@H]5CC6=CC=CC=C6[C@@H]5NC(=O)[C@@H]7CCCN7C(=O)[C@H](C8CCCCC8)NC(=O)[C@H](C)NC)NC [AZD5582] + Cc1cc(Nc2cc(N3CCN(C)CC3)nc(Sc3ccc(NC(=O)C4CC4)cc3)n2)n[nH]1 [Tozasertib] (partner 0.1 µM)
In short: as §1

Cell Line | relative viability (AZD5582 + OSI-027; first compound 0.001581 µM) | relative viability (AZD5582 + OSI-027; first compound 0.005 µM) | relative viability (AZD5582 + OSI-027; first compound 0.01581 µM) | relative viability (AZD5582 + OSI-027; first compound 0.05 µM) | relative viability (AZD5582 + Pictilisib; first compound 0.001581 µM) | relative viability (AZD5582 + Pictilisib; first compound 0.005 µM) | relative viability (AZD5582 + Pictilisib; first compound 0.01581 µM) | relative viability (AZD5582 + Pictilisib; first compound 0.05 µM) | relative viability (AZD5582 + Crizotinib; first compound 0.001581 µM) | relative viability (AZD5582 + Crizotinib; first compound 0.005 µM) | relative viability (AZD5582 + Crizotinib; first compound 0.01581 µM) | relative viability (AZD5582 + Crizotinib; first compound 0.05 µM) | relative viability (AZD5582 + Linsitinib; first compound 0.001581 µM) | relative viability (AZD5582 + Linsitinib; first compound 0.005 µM) | relative viability (AZD5582 + Linsitinib; first compound 0.01581 µM) | relative viability (AZD5582 + Linsitinib; first compound 0.05 µM) | relative viability (AZD5582 + Tozasertib; first compound 0.001581 µM) | relative viability (AZD5582 + Tozasertib; first compound 0.005 µM) | relative viability (AZD5582 + Tozasertib; first compound 0.01581 µM) | relative viability (AZD5582 + Tozasertib; first compound 0.05 µM)
NCI-H1975 | 0.688 | 0.956 | 0.829 | 0.9 | 0.3 | 0.348 | 0.315 | 0.409 | 1.07 | 1.1 | 0.938 | 1.04 | 1.08 | 1.04 | 1.01 | 1.25 | 0.643 | 0.858 | 0.742 | 0.809
NCI-H1993 | 0.503 | 0.541 | 0.547 | 0.541 | 0.916 | 0.807 | 0.796 | 0.859 | 0.824 | 0.826 | 0.819 | 0.915 | 0.688 | 0.657 | 0.724 | 0.705 | 0.599 | 0.681 | 0.547 | 0.567
NCI-H2009 | 0.536 | 0.73 | 0.448 | 0.48 | 0.741 | 0.998 | 0.467 | 0.705 | 1.01 | 1.03 | 0.993 | 1.02 | 1.2 | 1.21 | 1.2 | 1.16 | 0.715 | 0.774 | 0.761 | 0.788
NCI-H2023 | 0.286 | 0.44 | 0.374 | 0.368 | 0.227 | 0.288 | 0.172 | 0.246 | 0.567 | 0.635 | 0.576 | 0.703 | 0.666 | 0.741 | 0.691 | 0.677 | 0.209 | 0.345 | 0.499 | 0.305
NCI-H2085 | 0.499 | 0.902 | 0.578 | 0.367 | 0.572 | 0.44 | 0.488 | 0.584 | 0.732 | 0.874 | 0.854 | 0.754 | 0.755 | 0.9 | 0.891 | 0.938 | 0.716 | 0.708 | 0.798 | 0.606
NCI-H2087 | 0.523 | 0.695 | 0.514 | 0.568 | 0.871 | 1.02 | 0.905 | 0.986 | 0.689 | 0.911 | 0.692 | 0.937 | 0.879 | 0.948 | 0.961 | 0.902 | 0.23 | 0.218 | 0.319 | 0.289
NCI-H2126 | 0.709 | 0.703 | 0.522 | 0.607 | 0.505 | 0.556 | 0.436 | 0.533 | 1.04 | 0.932 | 0.967 | 0.662 | 0.666 | 0.709 | 0.715 | 0.745 | 0.779 | 0.698 | 0.806 | 0.573
NCI-H2228 | 0.524 | 0.749 | 0.62 | 0.237 | 0.286 | 0.352 | 0.378 | 0.193 | 0.623 | 0.521 | 0.702 | 0.479 | 0.903 | 0.689 | 0.813 | 0.44 | 0.191 | 0.27 | 0.333 | 0.161
NCI-H2347 | 0.335 | 0.388 | 0.364 | 0.456 | 0.712 | 0.446 | 0.637 | 0.894 | 0.657 | 0.601 | 0.509 | 0.701 | 0.914 | 1.08 | 0.972 | 0.952 | 0.561 | 0.523 | 0.5 | 0.553
NCI-H2405 | 0.651 | 0.647 | 0.485 | 0.565 | 0.459 | 0.856 |  | 0.612 | 0.785 | 0.957 | 0.804 | 0.9 | 0.954 | 0.989 |  | 1 | 0.74 | 0.813 | 0.708 | 0.85
NCI-H3122 | 0.912 | 0.891 | 1.02 | 0.147 | 0.626 | 0.569 | 0.548 | 0.189 | 0.264 | 0.305 | 0.298 | 0.247 | 1.02 | 1.03 | 0.967 | 0.313 | 0.157 | 0.178 | 0.477 | 0.121
PC-3 [JPC-3] | 0.633 | 0.596 | 0.635 | 0.504 | 0.664 | 0.543 | 0.607 | 0.332 | 0.862 | 0.882 | 0.97 | 0.314 | 0.933 | 0.944 | 1.04 | 0.691 | 0.775 | 0.909 | 0.804 | 0.42
PC-14 | 0.643 | 1.06 | 0.703 | 0.74 | 0.501 | 0.549 | 0.598 | 0.295 | 0.787 | 0.835 | 0.909 | 0.742 | 0.895 | 1.02 | 0.902 | 0.958 | 0.521 | 0.595 | 0.558 | 0.6
RERF-LC-KJ |  |  | 0.508 | 0.289 | 0.471 |  | 0.541 | 0.392 | 0.525 | 0.516 | 0.792 | 0.782 | 0.525 | 0.481 | 0.879 | 0.464 |  |  | 0.431 | 0.259
SK-LU-1 | 0.288 | 0.273 | 0.344 | 0.253 | 0.422 | 0.357 | 0.494 | 0.325 | 0.365 | 0.272 | 0.91 | 0.152 | 0.613 | 0.495 | 1.23 | 0.273 | 0.229 | 0.205 | 0.343 | 0.13
SK-MES-1 | 0.599 | 0.602 | 0.566 | 0.591 | 0.391 | 0.475 | 0.4 | 0.433 | 0.992 | 1.02 | 0.941 | 1.04 | 1.1 | 1.16 | 1.04 | 1.17 | 0.771 | 0.785 | 0.888 | 0.805
SW 1573 | 0.72 | 0.66 | 0.662 | 0.862 | 0.487 | 0.612 | 0.635 | 0.674 | 0.686 | 0.717 | 0.815 | 0.858 | 0.918 | 0.834 | 0.801 | 0.916 | 0.188 | 0.192 | 0.164 | 0.255
UMC-11 | 0.469 | 0.53 | 0.476 | 0.454 | 0.722 | 0.842 | 0.648 | 0.666 | 0.534 | 0.671 | 0.578 | 0.493 | 0.931 | 1.07 | 0.96 | 1.11 | 0.207 | 0.203 | 0.196 | 0.203
